Experimental data taken from patent US10830762B2, “Compositions and methods for inducing conformational changes in cereblon and other E3 ubiquitin ligases” (Celgene Corporation, priority 2015, dated 2020).

How the values were obtained:
[1] = tested on: TMD8 (ABC) or Karpas 422 (GCB) cells; test: 3H-thymidine incorporation proliferation assay with lenalidomide co-treatment; assay type: cell-based
human PBMCs = test: IL2 release co-stimulation in human PBMCs treated with anti-CD3; assay type: cell-based
mouse splenocytes = test: IL2 induction in mouse splenocytes / mouse PBMC treated with anti-CD3; assay type: cell-based
Text: Data are shown as mean±s.d. (B) Costimulation of IL2 release by anti-CD28 (squares) or pomalidomide (circles) in mouse PBMC treated with anti-CD3. Data are shown as mean±s.d.

CRBN [2] = molecular target: CRBN (Homo sapiens, UniProt Q96SW2); test: Thalidomide analog bead assay with extracts of DF15R cells re-expressing wild type or mutant CRBN; assay type: binding; set-up: re-express full length wild type (CRBN^WT); expressed in transfected cells; host or cells: DF15R (CRBN-deficient myeloma) cells, lentiviral transduction, cell extract; settings: recombinant CRBN WT expressed in DF15R; preincubation of cell extracts with free compound
Procedure: (§1) DF15, DF15R or DF15R derived cell line extracts were prepared in NP 40 lysis buffer (0.5% NP40, 50 mM Tris HCl (pH 8.0), 150 mM NaCl, 0.5 mM DTT, 0.25 mM PMSF, 1× protease inhibitor mix (Roche, Indianapolis, Ind.) at approximately 2×10^8 cells per ml […]. Cell debris and nucleic acids were cleared by centrifugation (14,000 rpm 30 min 4° C.). In competition experiments 0.5 ml (3-5 mg protein) aliquots of the resulting extracts were preincubated (15 min room temp.) with 5 μl DMSO (control) or 5 μl compound at varying concentrations in DMSO. Thalidomide analog-coupled beads (0.3-0.5 mg) were added to protein extracts and samples rotated (2 hours, 4° C.). Beads were washed three times with 0.5 ml NP40 buffer, and then bound proteins were eluted with SDS-PAGE sample buffer.
(§2) Cell extracts from these lines were then used to assay the ability of CRBN to bind immunomodulatory agent compound.
(§3) Cell extracts from this line were used to assay the ability of CRBN^E377V to bind Immunomodulatory agent compound.

CRBN [3] = molecular target: T1, CRBN (Homo sapiens, UniProt Q96SW2, E377V); test: as above; assay type: binding; settings: CRBN E377V mutant; preincubation of cell extracts with free compound
T1 construct: re-express full length wild type (CRBN^WT); expressed in transfected cells; host or cells: DF15R (CRBN-deficient myeloma) cells, lentiviral transduction, cell extract
Procedure: as §1, §2, §3

DF15R myeloma cells = test: Cell proliferation assay of DF15R cells re-expressing wild type or mutant CRBN treated with pomalidomide; assay type: cell-based
Procedure: (A) Cell lines re-expressing full-length CRBN wild-type. W386A or W400A mutants were tested for the ability to bind immunomodulatory agent compounds. Assay was repeated at least three times. Representative Western blot of representative experiment is shown. (B) Cell proliferation assay of DF15 (sensitive). DF15R (resistant; CRBN^null), CRBNWT, CRBNW386A; CRBN400 cells treated with a dose response of pomalidomide. Assays were done in triplicate and error bars representative s.d. Data for each cell line was normalized to treatment with vehicle (DMSO). (C) Western blots of key downstream effectors of immunomodulatory agent resistance.
(A) Cell lines re-expressing RFP or full length CRBN wild type or E377V mutant were tested for the ability of CRBN proteins to bind immunomodulatory agent compounds. Assay was repeated at least three times. Representative Western blot of representative experiment is shown. (B) Cell proliferation assay of DF15 (sensitive), DF15R (resistant; CRBN^null), CRBN^WT, CRBN^E377V cells treated with a dose response of pomalidomide. Assays were done in triplicate and error bars represent s.d. Data for each cell line was normalized to treatment with vehicle (DMSO).
The antiproliferative effect of immunomodulatory agent compounds on myeloma cells is mediated through CRBN protein. […]

[4] = molecular target: MBP-IKZF1 (a.a. 140-168) / CRBN-DDB1 (Homo sapiens, UniProt Q13422+Q96SW2); settings: 100 uM compound; IKZF1 domain with one predicted zinc finger
[5] = tested on: H929 and U266 multiple myeloma cell lines; test: Cell viability by flow cytometry in CRBN inducible shRNA knockdown cells; assay type: cell-based; settings: CRBN inducible knockdown vs shControl; 5 day treatment
Procedure: (A) An inducible shRNA construct targeting CRBN or a control construct was transduced into the multiple myeloma cell lines H929 and U266. Inducible shRNA expression (marked by turbo-RFP) was monitored by flow cytometry over a period of 1 to 9 days as indicated in the histograms (Top row). […] (B) CRBN protein expression was quantified by Western blotting. […] (D)-(F) After 9 days of shRNA inducible knock-down, cells were treated with increasing doses of pomalidomide and compound effect in cell viability was assayed by flow cytometry after 5 day treatment. […] Data are shown as mean of three independent experiments±s.d.
Inducible shRNA constructs targeting CRBN or a control construct (Open Biosystems) were transduced using spinoculation methodology into the multiple myeloma cell lines H929 and U266. Stably transduced cells were selected with puromycin. Inducible shRNA expression (marked by RFP) was monitored by fluorescence microscopy and flow cytometry using 1 μg/mL doxycycline. CRBN protein expression was quantified by Western blotting. Cell proliferation and viability were assessed by 7AAD/flow cytometry assays.

## Nc1cccc2c1CN(C1CCC(=O)NC1=O)C2=O (stereo not drawn) [lenalidomide, 3-(4-amino-1-oxo-1,3-dihydro-isoindol-2-yl)-piperidine-2,6-dione, reference compound]
[1]; co-culture with Compound A or Compound C
  competition for CRBN: competes with Compound A and Compound C for CRBN

## Nc1cccc2c1C(=O)N(C1CCC(=O)NC1=O)C2=O (stereo not drawn) [pomalidomide]
Human PBMCs
  IL2 release: Co-stimulation of IL2 release
Mouse splenocytes
  IL-2 induction: resistant to the IL-2 inducing effects
CRBN [2]
  competition for CRBN binding to thalidomide analog-beads: competed for binding to the beads
CRBN [3]
  competition for CRBN binding to thalidomide analog-beads: competed
DF15R myeloma cells; DF15R re-expressing CRBN E377V
  antiproliferative sensitivity: unable to rescue sensitivity
DF15R myeloma cells; DF15R re-expressing CRBN WT
  antiproliferative effect: regained antiproliferative effect
[4]
  pull down of CRBN-DDB1 by minimal IKZF1 domain: sufficient to pull down CRBN-DDB1
[5]
  anti-proliferative effects in CRBN knockdown cells: reduced anti-proliferative effects

## Cc1nc2cccc(N)c2c(=O)n1C1CCC(=O)NC1=O (stereo not drawn) [Compound A, 3-(5-amino-2-methyl-4-oxo-4H-quinazolin-3-yl)-piperidine-2,6-dione]
[1]; co-treatment with 10 μM lenalidomide, 3H-thymidine incorporation
  anti-proliferative effects on co-treatment with lenalidomide: blocks anti-proliferative effects

## O=C1CCC(N2C(=O)c3ccccc3C2=O)C(=O)N1 (stereo not drawn) [thalidomide]
CRBN [2]
  competition for CRBN binding to thalidomide analog-beads: competed for binding to the beads
CRBN [3]
  competition for CRBN binding to thalidomide analog-beads: competed
